{"source": "patent US6214805A", "about": "“RNase L activators and antisense oligonucleotides effective to treat RSV infections” (priority 1997, dated 2001)", "key": {"[1]": {"system": "Hep-2 Cells", "assay": "Cytotoxicity by morphological changes in HEp-2 cells (CPE inhibition assay)", "assay_type": "cell-based, human", "details": "Homo sapiens", "method": "(§1) Embryonic African green monkey kidney cells (MA-104) were obtained from BioWhittaker, Inc. (Walkersville, Md.). HEp-2 cells were propagated from a human epidermoid carcinoma of the larynx (American Type Culture Collection, ATCC; Rockville, Md.). The cells were grown in minimal essential medium. (MEM, Gibco-BRL, Gaitherburg, Md.) supplemented with 0.1% NaHCO3 and 10% fetal bovine serum (FBS, Hyclone Laboratories, Logan Utah.). When performing antiviral assays, serum was reduced to 2% and 50 μg/ml gentamicin (Sigma Chemical Company, St. Louis, Mo.) was added to the medium.\nMorphological changes due to compound cytotoxicity were graded on a scale of 0-5; grade 5 was defined as 100% cytotoxicity. The 50% cytotoxic dose (IC50 was calculated by regression analysis. A selective index (S.I.) was calculated for each compound [S.I.=(IC50)/(EC50 ]."}, "[2]": {"system": "RSV Long (A)", "assay": "CPE inhibition assay in HEp-2 cells, RSV strain Long", "assay_type": "cell-based, Respiratory syncytial virus", "details": "Table 12, CPE", "method": "(§2) The CPE inhibition assay used in this study was performed as described by Sidwell and Huffman (Sidwell et al., 1971, Appl. Microbiol. 22:7979-7801) with slight modifications. Varying concentrations of test compounds were added to each plate containing near confluent cell monolayers (1×10^5 cells/well) followed immediately by the addition of virus at a multiplicity of infection (MOI)=0.01, and then incubated at 37° C. On the following day, the medium from each plate was removed and fresh compound added. The assay was stopped at the end of the sixth day when the virus cytopathic effect in the virus infected, untreated control cells affected all cells. All compounds were assayed for virus inhibition in quadruplicate and for cytotoxicity in duplicate. For each compound, two wells were set aside as uninfected, untreated cell controls per test and four wells per test received virus only and represented controls for virus replication. […] For all CPE-based assays, the 50% effective concentration (EC50) was calculated by regression analysis using the means of the CPE ratings at each concentration of compound.\n(§3) In this series, MP351 was added once a day for two days with fresh medium"}, "[3]": {"system": "RSV Long (A)", "assay": "Neutral red uptake assay in HEp-2 cells, RSV strain Long", "assay_type": "cell-based, Respiratory syncytial virus", "details": "Table 12, neutral red", "method": "(§4) This assay was performed by a modified method as described by Cavenaugh et al. (Cavenaugh et al. 1990, Invest. New Drugs 8:347-354). Briefly, medium was removed from each well of a plate scored for CPE from a CPE inhibition assay, 0.2 ml of neutral red (0.034% in PSS) was added to each of the wells of that plate and the plate incubated for 2 hr at 37° C. in the dark. The neutral red solution was removed from the wells and the wells rinsed twice with PBS (pH 7.4). Equal volumes (0.1 ml) of absolute ethanol and Sorenson citrate buffer (0.1 M sodium citrate, 0.1 M HCI, pH 4.2) were mixed together and added to each well. Plates were incubated in the dark for 30 min. at room temperature to solubilize the dye. The plates were then gently mixed on a 96-well plate adapted vortexer for 1 min. Absorbances at 540 nm and 450 nm were read with a microplate reader (Bio-Tek EL 1309; Bio-Tek Instruments, Inc. Winooski, Vt.). Absorbance values were expressed as percents of untreated controls and EC50 and IC50 values were calculated by regression analysis.\nas §3"}, "[4]": {"system": "RSV strain A2", "assay": "Antiviral activity in MA-104 cells, visual CPE", "assay_type": "cell-based, Respiratory syncytial virus", "from_the_text": "(§5) A comparison of the efficacies of spA4 -antiRSV3'3'T/(8281-8299) treatment and conventional ribarvirin treatment can be obtained by determining the RSV-inhibitory concentration and the cytotoxic concentration of each compound. Cultures of the human laryngeal carcinoma cell line HEp-2 and the […] renal cell line MA-104 were established and infected with an MOI=0.005. Cultures were fed twice daily. Treatment with either ribavirin or spA4 -antiRSV3'3'T/(8281-8299) was begun simultaneously with infection and continued for four days. Treatment was then withdrawn and the test read on day 5. The effects of treatment on RSV infection were reported as 1) an EC50, the concentration at which there was a 50% reduction in the observable cytopathic effects of infection and 2) an EC90, the concentration at which there was a 90% reduction in viral production. […] Therapeutic efficacy is estimated by the Selectivity Index, which is the ratio of IC50 /EC50.\nas determined with RSV strain A2, MOI = 0.005\nFresh medium and oligo or ribavirin added twice daily for 4 d and test read\nEC50 effective concentration to reduce RSV-induced CPE by 50%."}, "[5]": {"system": "Hep-2 Cells", "assay": "Cytotoxicity to Hep-2 cells (visual and dye uptake, rapidly dividing cells)", "assay_type": "cell-based, human", "details": "Homo sapiens", "from_the_text": "as §5\nIC50 50% inhibitory concentration for cytotoxicity to cells (visual"}, "[6]": {"system": "RSV CH18537 (B)", "assay": "CPE inhibition assay in HEp-2 cells, RSV strain CH18537", "assay_type": "cell-based, Respiratory syncytial virus", "details": "Table 12, CPE", "method": "as §2, §3"}, "[7]": {"system": "RSV CH18537 (B)", "assay": "Neutral red uptake assay in HEp-2 cells, RSV strain CH18537", "assay_type": "cell-based, Respiratory syncytial virus", "details": "Table 12, neutral red", "method": "as §4, §3"}, "[8]": {"system": "Hep-2 Cells", "assay": "Neutral red uptake assay of cytotoxicity in HEp-2 cells", "assay_type": "cell-based, human", "details": "Homo sapiens", "method": "as §1, §4"}, "[9]": {"system": "RSV strain A2", "assay": "Neutral red uptake assay of CPE inhibition in HEp-2 cells", "assay_type": "cell-based, Respiratory syncytial virus", "details": "for EC50: human respiratory syncytial virus", "method": "as §4"}, "[10]": {"details": "human respiratory syncytial virus, 48 h, once a day for two days"}, "[11]": {"details": "HEp-2, 24 h, Table 11, neutral red, q.d. 1 day (added along with virus, never replenished), HEp2"}, "[12]": {"details": "HEp-2, 48 h, Table 11, neutral red, B.I.D. 2 days, HEp2"}}, "note": "Like-named read-outs stand apart in the source and are kept apart here."}
{"smiles": "NC(=O)c1ncn([C@@H]2O[C@H](CO)[C@@H](O)[C@H]2O)n1", "note": "[Ribavirin]", "values": [{"measurement": "IC50", "setting": "[1]; HEp-2, 0 h, Table 13, CPE, q.d., Day 0, HEp-2", "result": 240, "unit": "µM"}, {"measurement": "IC50", "setting": "[1]; HEp-2, 24 h, Table 10, CPE, q.d. 1 day (added along with virus, never replenished), HEp2", "result": 230, "unit": "µM"}, {"measurement": "IC50", "setting": "[1]; HEp-2, 24 h, Table 13, CPE, q.d., Day 1, HEp-2", "result": 320, "unit": "µM"}, {"measurement": "IC50", "setting": "[1]; HEp-2, 48 h, Table 10, CPE, B.I.D. 2 days, HEp2", "result": 230, "unit": "µM"}, {"measurement": "IC50", "setting": "[1]; HEp-2, 48 h, Table 13, CPE, q.d., Day 2, HEp-2", "result": 320, "unit": "µM"}, {"measurement": "IC50", "setting": "[1]; HEp-2, 72 h, Table 10, CPE, B.I.D. 3 days, HEp2", "result": 720, "unit": "µM"}, {"measurement": "IC50", "setting": "[1]; HEp-2, 72 h, Table 10, CPE, q.d. 3 days, HEp2", "result": 230, "unit": "µM"}, {"measurement": "IC50", "setting": "[1]; HEp-2, 96 h, Table 10, CPE, B.I.D. 4 days, HEp2", "result": 230, "unit": "µM"}, {"measurement": "IC50", "setting": "[1]; HEp-2, 96 h, Table 10, CPE, q.d. 4 days, HEp2", "result": 230, "unit": "µM"}, {"measurement": "IC50", "setting": "[1]; HEp-2, Table 12, CPE, test with 393 (clinical isolate), HEp-2", "result": 96, "unit": "µM"}, {"measurement": "IC50", "setting": "[1]; HEp-2, Table 12, CPE, test with CH18537 (B), HEp-2", "result": 208, "unit": "µM"}, {"measurement": "IC50", "setting": "[1]; HEp-2, Table 12, CPE, test with Long (A), HEp-2", "result": 205, "unit": "µM"}, {"measurement": "SI", "setting": "[2]", "result": 17}, {"measurement": "EC50", "setting": "[2]; [10]", "result": 12, "unit": "µM"}, {"measurement": "SI", "setting": "[3]", "result": 23}, {"measurement": "EC50", "setting": "[3]; [10]", "result": 12, "unit": "µM"}, {"measurement": "SI selectivity index = IC50/EC50", "setting": "[4]", "result": 210}, {"measurement": "EC50", "setting": "[4]; human respiratory syncytial virus, MA104, 96 h, visual CPE, MOI = 0.005, added twice daily for 4 d, read on d 5", "result": 1000, "unit": "nM"}, {"measurement": "SI selectivity index = IC50/EC50", "setting": "[4]; listed as ribavirin", "result": "about 200"}, {"measurement": "IC50", "setting": "[5]", "result": 41, "unit": "µM"}, {"measurement": "SI", "setting": "[6]", "result": 52}, {"measurement": "EC50", "setting": "[6]; [10]", "result": 4, "unit": "µM"}, {"measurement": "SI", "setting": "[7]", "result": 19}, {"measurement": "EC50", "setting": "[7]; [10]", "result": 12, "unit": "µM"}, {"measurement": "IC50", "setting": "[8]; HEp-2, 0 h, Table 13, neutral red, q.d., Day 0, HEp-2", "result": 328, "unit": "µM"}, {"measurement": "IC50", "setting": "[8]; [11]", "result": 480, "unit": "µM"}, {"measurement": "IC50", "setting": "[8]; HEp-2, 24 h, Table 13, neutral red, q.d., Day 1, HEp-2", "result": 1130, "unit": "µM"}, {"measurement": "IC50", "setting": "[8]; [12]", "result": 1050, "unit": "µM"}, {"measurement": "IC50", "setting": "[8]; HEp-2, 48 h, Table 13, neutral red, q.d., Day 2, HEp-2", "result": 320, "unit": "µM"}, {"measurement": "IC50", "setting": "[8]; HEp-2, 72 h, Table 11, neutral red, B.I.D. 3 days, HEp2", "result": 700, "unit": "µM"}, {"measurement": "IC50", "setting": "[8]; HEp-2, 72 h, Table 11, neutral red, q.d. 3 days, HEp2", "result": 1010, "unit": "µM"}, {"measurement": "IC50", "setting": "[8]; HEp-2, 96 h, Table 11, neutral red, B.I.D. 4 days, HEp2", "result": 600, "unit": "µM"}, {"measurement": "IC50", "setting": "[8]; HEp-2, 96 h, Table 11, neutral red, q.d. 4 days, HEp2", "result": 730, "unit": "µM"}, {"measurement": "IC50", "setting": "[8]; HEp-2, Table 12, neutral red, test with 393 (clinical isolate), HEp-2", "result": 96, "unit": "µM"}, {"measurement": "IC50", "setting": "[8]; HEp-2, Table 12, neutral red, test with CH18537 (B), HEp-2", "result": 233, "unit": "µM"}, {"measurement": "IC50", "setting": "[8]; HEp-2, Table 12, neutral red, test with Long (A), HEp-2", "result": 280, "unit": "µM"}, {"measurement": "SI", "setting": "[9]; Table 11, neutral red, B.I.D. 2 days, HEp2", "result": 130}, {"measurement": "SI", "setting": "[9]; Table 11, neutral red, B.I.D. 3 days, HEp2", "result": "> 175"}, {"measurement": "SI", "setting": "[9]; Table 11, neutral red, B.I.D. 4 days, HEp2", "result": 75}, {"measurement": "SI", "setting": "[9]; Table 11, neutral red, q.d. 1 day (added along with virus, never replenished), HEp2", "result": "> 120"}, {"measurement": "SI", "setting": "[9]; Table 11, neutral red, q.d. 3 days, HEp2", "result": 126}, {"measurement": "SI", "setting": "[9]; Table 11, neutral red, q.d. 4 days, HEp2", "result": 36}, {"measurement": "SI", "setting": "[9]; Table 13, neutral red, q.d., Day 0, HEp-2", "result": 27}, {"measurement": "SI", "setting": "[9]; Table 13, neutral red, q.d., Day 1, HEp-2", "result": 28}, {"measurement": "SI", "setting": "[9]; Table 13, neutral red, q.d., Day 2, HEp-2", "result": 80}, {"measurement": "EC50", "setting": "[9]; HEp-2, 0 h, Table 13, neutral red, q.d., Day 0 (added immediately after virus exposure), HEp-2", "result": 12, "unit": "µM"}, {"measurement": "EC50", "setting": "[9]; [11]", "result": 4, "unit": "µM"}, {"measurement": "EC50", "setting": "[9]; HEp-2, 24 h, Table 13, neutral red, q.d., fresh compound up to Day 1 post infection, HEp-2", "result": 40, "unit": "µM"}, {"measurement": "EC50", "setting": "[9]; [12]", "result": 8, "unit": "µM"}, {"measurement": "EC50", "setting": "[9]; HEp-2, 48 h, Table 13, neutral red, q.d., fresh compound up to Day 2 post infection, HEp-2, read-out: EC50", "result": 4, "unit": "µM"}, {"measurement": "EC50", "setting": "[9]; HEp-2, 72 h, Table 11, neutral red, B.I.D. 3 days, HEp2, read-out: EC50", "result": "< 4", "unit": "µM"}, {"measurement": "EC50", "setting": "[9]; HEp-2, 72 h, Table 11, neutral red, q.d. 3 days, HEp2, read-out: EC50", "result": 8, "unit": "µM"}, {"measurement": "EC50", "setting": "[9]; HEp-2, 96 h, Table 11, neutral red, B.I.D. 4 days, HEp2, read-out: EC50", "result": 8, "unit": "µM"}, {"measurement": "EC50", "setting": "[9]; HEp-2, 96 h, Table 11, neutral red, q.d. 4 days, HEp2, read-out: EC50", "result": 20, "unit": "µM"}]}
